Measurements: the kinase profiling compilation of Christmann-Franck et al. (2016)

How the values were obtained:
Test in all cases: radiometric filter-binding kinase assay, Kinase HotSpot
Conditions in all cases: compound 0.5 µM; ATP 10 µM
ACVR1 (human) = ACVR1 (human) (UniProt Q04771)
ADRBK1 (human) = ADRBK1 (human) (UniProt P25098)
AURKC (human) = AURKC (human) (UniProt Q9UQB9)
BMX (human) = BMX (human) (UniProt P51813)
BRAF (human) = BRAF (human) (UniProt P15056)
BTK (human) = BTK (human) (UniProt Q06187)
CDK1 CCNA2 (human) = CDK1 CCNA2 (human) (UniProt P06493+P20248)
DAPK1 (human) = DAPK1 (human) (UniProt P53355)
DDR2 (human) = DDR2 (human) (UniProt Q16832)
DYRK1B (human) = DYRK1B (human) (UniProt Q9Y463)
EPHA5 (human) = EPHA5 (human) (UniProt P54756)
EPHA6 (human) = EPHA6 (human) (UniProt Q9UF33)
EPHA8 (human) = EPHA8 (human) (UniProt P29322)
Chain of EPHA8 (human) (P29322 whole entry, looked up): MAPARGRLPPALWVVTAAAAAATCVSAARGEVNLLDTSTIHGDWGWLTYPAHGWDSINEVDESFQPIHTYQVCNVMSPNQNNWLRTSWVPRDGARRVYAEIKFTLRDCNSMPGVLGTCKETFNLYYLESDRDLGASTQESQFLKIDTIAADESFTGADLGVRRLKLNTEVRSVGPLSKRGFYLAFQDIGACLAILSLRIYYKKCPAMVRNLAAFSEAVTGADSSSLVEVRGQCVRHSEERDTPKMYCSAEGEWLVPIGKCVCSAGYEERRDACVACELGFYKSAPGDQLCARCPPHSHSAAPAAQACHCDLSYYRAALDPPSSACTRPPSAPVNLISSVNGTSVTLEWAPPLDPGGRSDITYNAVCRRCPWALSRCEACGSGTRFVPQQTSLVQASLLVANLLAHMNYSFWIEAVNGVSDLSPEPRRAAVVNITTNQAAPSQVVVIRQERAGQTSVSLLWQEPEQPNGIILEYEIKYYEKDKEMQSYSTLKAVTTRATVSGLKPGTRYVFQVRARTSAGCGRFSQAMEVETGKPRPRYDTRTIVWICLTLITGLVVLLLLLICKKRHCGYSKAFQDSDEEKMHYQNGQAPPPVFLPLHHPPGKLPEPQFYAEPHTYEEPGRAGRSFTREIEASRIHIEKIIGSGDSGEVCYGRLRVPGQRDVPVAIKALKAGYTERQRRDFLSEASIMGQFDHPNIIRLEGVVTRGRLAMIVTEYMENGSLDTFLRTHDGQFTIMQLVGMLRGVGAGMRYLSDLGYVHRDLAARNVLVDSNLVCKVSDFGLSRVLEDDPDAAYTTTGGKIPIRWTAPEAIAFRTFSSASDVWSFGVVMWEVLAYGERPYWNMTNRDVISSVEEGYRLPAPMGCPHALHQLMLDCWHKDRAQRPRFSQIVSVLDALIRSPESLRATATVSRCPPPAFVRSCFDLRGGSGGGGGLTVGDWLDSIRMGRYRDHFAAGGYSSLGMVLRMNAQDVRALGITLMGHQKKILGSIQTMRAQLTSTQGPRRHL

FGFR1 (human) = FGFR1 (human) (UniProt P11362)
Chain of FGFR1 (human) (P11362 whole entry, looked up): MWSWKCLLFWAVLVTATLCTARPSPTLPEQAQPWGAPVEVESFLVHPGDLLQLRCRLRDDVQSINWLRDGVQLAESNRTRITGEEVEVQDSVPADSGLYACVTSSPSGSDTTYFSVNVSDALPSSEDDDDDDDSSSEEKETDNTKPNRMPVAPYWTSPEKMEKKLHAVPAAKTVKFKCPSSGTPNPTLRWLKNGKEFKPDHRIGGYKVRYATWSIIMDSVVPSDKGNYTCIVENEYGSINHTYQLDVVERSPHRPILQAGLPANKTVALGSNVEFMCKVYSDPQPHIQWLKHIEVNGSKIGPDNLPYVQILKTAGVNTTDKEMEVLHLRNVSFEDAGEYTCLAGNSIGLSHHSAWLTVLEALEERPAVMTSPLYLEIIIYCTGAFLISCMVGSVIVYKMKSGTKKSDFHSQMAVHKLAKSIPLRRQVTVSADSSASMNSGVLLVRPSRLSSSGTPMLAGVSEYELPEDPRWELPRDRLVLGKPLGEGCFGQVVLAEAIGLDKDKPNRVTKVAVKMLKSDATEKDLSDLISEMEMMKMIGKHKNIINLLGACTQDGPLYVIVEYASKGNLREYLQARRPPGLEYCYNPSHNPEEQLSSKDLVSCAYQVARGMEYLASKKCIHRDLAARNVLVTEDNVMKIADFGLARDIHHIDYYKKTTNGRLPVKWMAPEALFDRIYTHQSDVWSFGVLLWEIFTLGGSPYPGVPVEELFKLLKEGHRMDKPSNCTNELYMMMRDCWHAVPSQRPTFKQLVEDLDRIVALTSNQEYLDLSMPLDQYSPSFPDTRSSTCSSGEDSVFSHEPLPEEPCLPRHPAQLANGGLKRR

FLT3 (human) = FLT3 (human) (UniProt P36888)
FRK (human) = FRK (human) (UniProt P42685)
FYN (human) = FYN (human) (UniProt P06241)
GRK5 (human) = GRK5 (human) (UniProt P34947)
Chain of GRK5 (human) (P34947 whole entry, looked up): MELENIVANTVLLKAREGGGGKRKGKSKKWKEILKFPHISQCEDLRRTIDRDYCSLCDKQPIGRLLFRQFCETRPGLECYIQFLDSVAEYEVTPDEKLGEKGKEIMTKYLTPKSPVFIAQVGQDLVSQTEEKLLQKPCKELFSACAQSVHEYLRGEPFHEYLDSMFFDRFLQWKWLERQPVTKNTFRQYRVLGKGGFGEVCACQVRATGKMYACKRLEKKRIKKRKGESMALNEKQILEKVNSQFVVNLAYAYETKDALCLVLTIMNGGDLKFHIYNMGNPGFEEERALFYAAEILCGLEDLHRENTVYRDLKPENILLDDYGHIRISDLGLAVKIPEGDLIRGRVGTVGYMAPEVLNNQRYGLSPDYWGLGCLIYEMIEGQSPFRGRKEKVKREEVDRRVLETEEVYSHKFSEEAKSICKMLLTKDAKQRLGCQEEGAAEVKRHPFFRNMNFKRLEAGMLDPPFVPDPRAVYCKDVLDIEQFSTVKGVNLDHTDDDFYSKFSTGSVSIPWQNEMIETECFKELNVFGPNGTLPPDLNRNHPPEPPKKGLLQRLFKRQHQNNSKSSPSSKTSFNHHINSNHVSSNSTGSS

HIPK1 (human) = HIPK1 (human) (UniProt Q86Z02)
IKBKE (human) = IKBKE (human) (UniProt Q14164)
INSRR (human) = INSRR (human) (UniProt P14616)
IRAK1 (human) = IRAK1 (human) (UniProt P51617)
MAP3K2 (human) = MAP3K2 (human) (UniProt Q9Y2U5)
MAP3K8 (human) = MAP3K8 (human) (UniProt P41279)
MARK3 (human) = MARK3 (human) (UniProt P27448)
Chain of MARK3 (human) (P27448 whole entry, looked up): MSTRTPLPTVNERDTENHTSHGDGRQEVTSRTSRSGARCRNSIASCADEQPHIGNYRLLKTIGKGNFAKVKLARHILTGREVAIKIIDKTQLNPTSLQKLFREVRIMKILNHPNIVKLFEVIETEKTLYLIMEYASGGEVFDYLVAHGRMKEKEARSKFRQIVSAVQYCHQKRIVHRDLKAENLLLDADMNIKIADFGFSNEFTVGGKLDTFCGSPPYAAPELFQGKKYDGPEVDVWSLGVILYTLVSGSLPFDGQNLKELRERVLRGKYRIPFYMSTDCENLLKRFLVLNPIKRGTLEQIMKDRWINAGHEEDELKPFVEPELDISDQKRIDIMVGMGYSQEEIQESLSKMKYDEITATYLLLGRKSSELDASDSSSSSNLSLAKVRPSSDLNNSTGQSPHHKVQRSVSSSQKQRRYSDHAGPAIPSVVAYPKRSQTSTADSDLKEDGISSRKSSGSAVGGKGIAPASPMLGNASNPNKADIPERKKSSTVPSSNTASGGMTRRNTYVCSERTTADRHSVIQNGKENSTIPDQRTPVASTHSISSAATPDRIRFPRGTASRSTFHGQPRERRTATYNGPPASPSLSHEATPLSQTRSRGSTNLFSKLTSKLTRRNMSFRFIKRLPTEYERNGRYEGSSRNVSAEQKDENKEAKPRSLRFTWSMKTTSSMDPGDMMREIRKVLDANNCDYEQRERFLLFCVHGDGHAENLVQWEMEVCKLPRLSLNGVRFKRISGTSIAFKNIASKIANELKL

MYO3B (human) = MYO3B (human) (UniProt Q8WXR4)
NEK6 (human) = NEK6 (human) (UniProt Q9HC98)
PDPK1 (human) = PDPK1 (human) (UniProt O15530)
PRKCG (human) = PRKCG (human) (UniProt P05129)
PRKD2 (human) = PRKD2 (human) (UniProt Q9BZL6)
RPS6KA3 KD1 KD2 (human) = RPS6KA3 KD1 KD2 (human) (UniProt P51812)
RPS6KB1 (human) = RPS6KB1 (human) (UniProt P23443)
STK38 (human) = STK38 (human) (UniProt Q15208)
TAOK1 (human) = TAOK1 (human) (UniProt Q7L7X3)
TEK (human) = TEK (human) (UniProt Q02763)
Chain of TEK (human) (Q02763 whole entry, looked up): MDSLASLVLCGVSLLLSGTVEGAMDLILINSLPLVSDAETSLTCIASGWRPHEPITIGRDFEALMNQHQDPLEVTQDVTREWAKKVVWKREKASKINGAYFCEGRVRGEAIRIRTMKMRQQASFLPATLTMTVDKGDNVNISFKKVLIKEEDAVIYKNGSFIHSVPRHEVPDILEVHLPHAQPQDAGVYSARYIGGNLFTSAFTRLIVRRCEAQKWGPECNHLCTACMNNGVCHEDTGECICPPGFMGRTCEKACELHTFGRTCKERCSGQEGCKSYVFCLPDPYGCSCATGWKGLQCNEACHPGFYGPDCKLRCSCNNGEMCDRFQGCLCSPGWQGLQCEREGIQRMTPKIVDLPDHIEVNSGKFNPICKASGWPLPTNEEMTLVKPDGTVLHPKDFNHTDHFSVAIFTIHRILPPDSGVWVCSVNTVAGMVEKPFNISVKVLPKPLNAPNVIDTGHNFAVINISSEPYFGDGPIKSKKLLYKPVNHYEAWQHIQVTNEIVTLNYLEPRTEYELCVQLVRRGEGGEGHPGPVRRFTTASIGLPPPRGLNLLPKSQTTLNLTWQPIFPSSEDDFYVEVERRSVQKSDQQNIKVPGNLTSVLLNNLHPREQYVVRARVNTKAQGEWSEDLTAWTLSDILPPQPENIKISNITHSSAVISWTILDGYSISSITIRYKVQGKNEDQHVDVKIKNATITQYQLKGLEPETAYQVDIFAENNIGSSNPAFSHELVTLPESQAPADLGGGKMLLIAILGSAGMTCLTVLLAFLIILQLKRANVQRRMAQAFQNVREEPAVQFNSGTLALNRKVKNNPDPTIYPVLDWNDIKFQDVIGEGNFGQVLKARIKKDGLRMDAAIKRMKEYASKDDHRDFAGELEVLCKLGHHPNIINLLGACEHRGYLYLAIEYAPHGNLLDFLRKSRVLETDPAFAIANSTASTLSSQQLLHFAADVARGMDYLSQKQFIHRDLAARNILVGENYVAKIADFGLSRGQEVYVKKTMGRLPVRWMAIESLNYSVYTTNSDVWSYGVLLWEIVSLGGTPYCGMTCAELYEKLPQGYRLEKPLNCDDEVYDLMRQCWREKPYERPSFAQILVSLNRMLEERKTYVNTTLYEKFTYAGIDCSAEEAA

TLK2 (human) = TLK2 (human) (UniProt Q86UE8)
ULK3 (human) = ULK3 (human) (UniProt Q6PHR2)
EGFR (human) = EGFR (human) (UniProt P00533)
LCK (human) = LCK (human) (UniProt P06239)
PRKCZ (human) = PRKCZ (human) (UniProt Q05513)
PRKACG (human) = PRKACG (human) (UniProt P22612)

Chain of ACVR1 (human) (Q04771 whole entry, looked up): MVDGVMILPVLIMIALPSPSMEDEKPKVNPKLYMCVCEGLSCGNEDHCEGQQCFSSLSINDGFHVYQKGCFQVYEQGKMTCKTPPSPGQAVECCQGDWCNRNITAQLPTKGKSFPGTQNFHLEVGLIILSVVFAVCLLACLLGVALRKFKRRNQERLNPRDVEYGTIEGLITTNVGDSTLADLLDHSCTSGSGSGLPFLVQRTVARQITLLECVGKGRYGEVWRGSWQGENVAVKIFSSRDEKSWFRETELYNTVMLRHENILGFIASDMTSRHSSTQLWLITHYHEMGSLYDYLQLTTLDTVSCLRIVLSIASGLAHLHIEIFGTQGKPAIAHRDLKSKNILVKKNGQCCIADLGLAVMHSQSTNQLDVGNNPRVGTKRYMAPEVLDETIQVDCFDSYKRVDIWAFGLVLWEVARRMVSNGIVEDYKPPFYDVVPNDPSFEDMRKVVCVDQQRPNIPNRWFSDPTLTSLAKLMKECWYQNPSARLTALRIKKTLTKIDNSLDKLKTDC

Structure (SMILES)	residual activity (ACVR1 (human))	residual activity (ADRBK1 (human))	residual activity (BMX (human))	residual activity (BTK (human))	residual activity (DAPK1 (human))	residual activity (DDR2 (human))	residual activity (DYRK1B (human))	residual activity (EPHA5 (human))	residual activity (EPHA6 (human))	residual activity (EPHA8 (human))	residual activity (FRK (human))	residual activity (FYN (human))	residual activity (GRK5 (human))	residual activity (HIPK1 (human))	residual activity (IKBKE (human))	residual activity (INSRR (human))	residual activity (IRAK1 (human))	residual activity (PDPK1 (human))	residual activity (RPS6KA3 KD1 KD2 (human))	residual activity (STK38 (human))	also measured
O=c1cc(N2CCOCC2)oc2c(-c3ccccc3)cccc12	91.2%	106%	96.9%	94.5%	90.1%	91.3%	96.8%	113%	87%	103%	101%	100%	91.6%	111%	100%	97.7%	104%	104%	98.1%	103%	residual activity (AURKC (human)): 97%; residual activity (BRAF (human)): 95.9%; residual activity (CDK1 CCNA2 (human)): 92%; residual activity (FGFR1 (human)): 96.6%; residual activity (FLT3 (human)): 95.6%; residual activity (MAP3K2 (human)): 101%; residual activity (MAP3K8 (human)): 98.2%; residual activity (MARK3 (human)): 95.4%; residual activity (MYO3B (human)): 104%; residual activity (NEK6 (human)): 112%; residual activity (PRKCG (human)): 94.2%; residual activity (PRKD2 (human)): 93.8%; residual activity (RPS6KB1 (human)): 101%; residual activity (TAOK1 (human)): 86.4%; residual activity (TEK (human)): 89.2%; residual activity (TLK2 (human)): 83.2%; residual activity (ULK3 (human)): 103%
Nc1ncnc2c1cnn2-c1ccccc1	101%	99.4%	96.8%	98.7%	98.5%	92.3%	93%	95.6%	83.2%	90.5%	101%	97.8%	104%	98.4%	100%	106%	85.8%	104%	95%	98.6%	residual activity (AURKC (human)): 98.2%; residual activity (BRAF (human)): 93.6%; residual activity (EGFR (human)): 73%; residual activity (FGFR1 (human)): 93%; residual activity (FLT3 (human)): 88.9%; residual activity (LCK (human)): 95.5%; residual activity (MAP3K2 (human)): 89.5%; residual activity (MAP3K8 (human)): 98.6%; residual activity (MARK3 (human)): 86.1%; residual activity (MYO3B (human)): 93.4%; residual activity (NEK6 (human)): 114%; residual activity (PRKCG (human)): 103%; residual activity (PRKCZ (human)): 96.3%; residual activity (PRKD2 (human)): 126%; residual activity (RPS6KB1 (human)): 103%; residual activity (TAOK1 (human)): 89.5%; residual activity (TEK (human)): 92.2%; residual activity (TLK2 (human)): 110%; residual activity (ULK3 (human)): 98.9%
COc1cc2c(N3CCN(C(=O)Nc4ccc(OC(C)C)cc4)CC3)ncnc2cc1OCCCN1CCCCC1	145%	98%	109%	102%	103%	102%	97.9%	104%	103%	96.6%	101%	94.8%	106%	98.9%	96.2%	98.9%	96.1%	96.8%	96.6%	99.1%	residual activity (AURKC (human)): 97%; residual activity (CDK1 CCNA2 (human)): 96%; residual activity (FGFR1 (human)): 101%; residual activity (LCK (human)): 87.1%; residual activity (MAP3K2 (human)): 103%; residual activity (MAP3K8 (human)): 93.2%; residual activity (MARK3 (human)): 103%; residual activity (MYO3B (human)): 88.5%; residual activity (NEK6 (human)): 87.4%; residual activity (PRKACG (human)): 108%; residual activity (PRKCG (human)): 90.9%; residual activity (PRKCZ (human)): 103%; residual activity (PRKD2 (human)): 96.4%; residual activity (RPS6KB1 (human)): 107%; residual activity (TAOK1 (human)): 103%; residual activity (TEK (human)): 99.6%; residual activity (TLK2 (human)): 96.2%; residual activity (ULK3 (human)): 101%
N#Cc1c(NC(=O)c2cccc3ccccc23)sc2c1CCCC2	72.9%	105%	101%	95%	109%	95.8%	101%	99.6%	93.4%	104%	104%	102%	98.2%	107%	94.3%	94.3%	104%	92.1%	99%	97.7%	residual activity (AURKC (human)): 95%; residual activity (BRAF (human)): 95.2%; residual activity (CDK1 CCNA2 (human)): 92.1%; residual activity (FGFR1 (human)): 105%; residual activity (FLT3 (human)): 111%; residual activity (LCK (human)): 102%; residual activity (MAP3K2 (human)): 84%; residual activity (MAP3K8 (human)): 99.8%; residual activity (MARK3 (human)): 97.1%; residual activity (MYO3B (human)): 107%; residual activity (NEK6 (human)): 101%; residual activity (PRKACG (human)): 111%; residual activity (PRKCG (human)): 95.4%; residual activity (PRKCZ (human)): 102%; residual activity (PRKD2 (human)): 126%; residual activity (RPS6KB1 (human)): 105%; residual activity (TAOK1 (human)): 106%; residual activity (TEK (human)): 104%; residual activity (TLK2 (human)): 98.9%
COc1cc2c(Nc3ccc(Br)cc3F)ncnc2cc1OCC1CCN(C)CC1	208%	92.2%	88.4%	17.6%	105%	68%	93%	54.4%	3.27%	33.9%	79.5%	48.2%	95.8%	96.7%	85.8%	105%	87.7%	91.3%	97.8%	100%	residual activity (BRAF (human)): 94.8%; residual activity (CDK1 CCNA2 (human)): 100%; residual activity (FLT3 (human)): 43.7%; residual activity (MAP3K2 (human)): 108%; residual activity (MAP3K8 (human)): 97.3%; residual activity (MARK3 (human)): 106%; residual activity (MYO3B (human)): 84.2%; residual activity (NEK6 (human)): 96.9%; residual activity (PRKACG (human)): 106%; residual activity (PRKCG (human)): 93.2%; residual activity (PRKCZ (human)): 97.8%; residual activity (PRKD2 (human)): 92%; residual activity (TAOK1 (human)): 103%; residual activity (TEK (human)): 50.8%; residual activity (TLK2 (human)): 79.7%; residual activity (ULK3 (human)): 105%
CN[C@@H]1C[C@H]2O[C@@](C)([C@@H]1OC)n1c3ccccc3c3c4c(c5c6ccccc6n2c5c31)C(=O)NC4										25.7%	5.5%							4.41%	-1.27%	10%	residual activity (ULK3 (human)): 1.82%
